What was measured:
Xanthine oxidase = target: T1, Xanthine oxidase (Bos taurus, UniProt P80457); test: Xanthine oxidase assay (superoxide by hypoxanthine/xanthine oxidase, Lucigenin); format: biochemical; settings: hypoxanthine 150 μM, buttermilk xanthine oxidase, 37° C.; for IC50: read-out: Xanthine Oxidase Inhibition IC50 (Integral)
T1 construct: purchased Sigma x-1875; host or cells: buttermilk

[1] = test system: isolated neutrophils (opsonized zymosan-stimulated oxidative burst); test: Measurement of chemiluminescence of isolated neutrophils (neutrophil burst, Lucigenin); format: cell-based; settings: for IC50 / inhibition at 50 µM: Neutrophil; for IC50 / Neutrophil Burst IC50 (Lucigenin): 14 min, opsonized zymosan, lucigenin, 37° C.; for inhibition at 50 µM: percent inhibition at 50 μM, single concentration, read-out: Neutrophil Burst Screen Value (% @ 50 μM)
Procedure: Whole blood (150 ml) was anticoagulated with Acid Citrate Dextrose (ACD) using a ratio of 1:5 ACD to blood.
All steps are to be performed using polypropylene plastic ware.
a. Whole blood (60 ml) was added to each of three 100 ml polypropylene graduated cylinders containing 30 ml of […]. The cylinders were covered securely with Parafilm. The blood was allowed to sediment for approximately 1 hour at room temperature.
b. The turbid straw-colored layer was harvested from the top of the cylinders into 50 ml conical polypropylene tubes. The white blood cells were pelleted by centrifugation at 240×g (Sorvall at 1200 rpm) for 12 min. at 4° C. with the brake on low.
c. The supernatant was removed by aspiration and the pooled pellet resuspended in 4-50 ml cold PBS (w/o Ca, Mg). It was then centrifuged at 240×g (Sorvall at 1200 rpm) for 6 min. at 4° C. with the brake on high.
a. The supernatant was aspirated and the pellet resuspended in 12 ml of cold cell culture-grade water. The pellet was titrated gently with a pipet for exactly 30 seconds then 4 ml of cold 0.6 M KCl was added. It was then QSed to 50 ml with cold PBS (w/o Ca, Mg) and centrifuged at 300×g (Sorvall TY 6000D at 1400 rpm) for 6 min. at 4° C. with the brake on high.
b. Step 2.a. was repeated once more.
a. The supernatant was aspirated and the cells were resuspended in 2.5 ml cold PBS (w/o Ca, Mg). The cell suspension was carefully layered over 3 ml Ficoll-Hypaque in a 15 ml polypropylene conical tube. It was then centrifuged at 400×g (Sorvall at 1900 rpm) for 30 min. at 4° C. with the brake on low.
b. Aspiration occurred down to the neutrophil pellet. The pellet was resuspended fin cold PBS (w/o Ca, Mg) and transferred to a 50 ml conical tube. It was then QSed to 50 ml with cold PBS (w/o Ca, Mg) and centrifuged at 300×g (Sorvall at 1400 rpm) for 6 min. at 4° C. with the brake on high.
d. The supernatant was aspirated and the pellet resuspended in 50 ml cold PBS (w/o Ca, Mg) and centrifuged at 300×g (Sorvall at 1400 rpm) for 6 min. with the brake on high.
e. The supernatant was aspirated and the neutrophil pellet resuspended in 4.0 ml cold PBS (w/o Ca, Mg). It was kept on ice. Trypan blue (10 μl) was diluted (1:40) and the cells were counted using a hemacytometer. The cell number and viability by Trypan […] exclusion were determined and the results recorded. The cells were diluted to 5.0×10^6 cells/ml with cold PBS-G (with Ca, Mg) prior to plating for the assay.
2. […] The suspension was centrifuged and the particles resuspended in 7 ml of PBS-G (with Ca, Mg)(18 mg/ml). It was stored on ice until used (briefly vortexed prior to pipetting).
4. PBS-G (10 μl) (with Ca, Mg) was added to the wells in a white 96 well plate.
6. The compound dilutions (10 μl) were added to the appropriate wells.
7. The cell prep was diluted to 5.0×10^6 cells/ml with PBS-G (with Ca, Mg) in a separate multipipette trough.
8. The neutrophil suspension (20 μl) was added to the appropriate wells.
9. The plate was incubated at 37° C. for three minutes.
10. Zymosan (10 μl of 18 mg/ml) was added to the appropriate wells.
11. The plate was read on the luminometer (Labsystems Luminoskan, Needham Heights, Mass.) for 14 min. at 37° C. on the kinetic mode and the results recorded using the software DeltaSoft.
12. The plate data was exported into Excel to determine percent of control and derive the means and standard deviations for the data. The IC50 was determined graphically from the data and plotted using SigmaPlot. For cases where one concentration (50 μM) was tested, percent inhibition was compared to that seen with 50 μM apocynin.
13. The results are set forth below in Table 1 as "Neutrophil Burst IC50 (Lucigenin)". The results for 50 μM inhibition in the single assay are reported as "Neutrophil Burst Screen Value (% @ 50 μM)".

Jurkat cells = test: Cytotoxicity assay employing Jurkat cells (MTT); format: cell-based; settings: Jurkat clone E6-1, MTT, 37° C. overnight
Procedure: This Assay was performed as set forth in Hansen et al., Journal of Immunological Methods, 119:203-210 (19930; Mosmann, Journal of Immunological Methods, 65:55-63 (1983); and Slater et al., Biochem. Ciophys. Acta, 77:383 (1963); except as noted below.
Compounds from the following Examples were tested for cytotoxicity using MTT (i.e., 3-[4,5-Dimethylthiazol-2-yl]-2,5-diphenyltetrazolium bromide; Thiazolyl Blue (Sigma, St. Louis, Mo.)).
MTT was dissolved in basal culture media at a concentration of 5 mg/ml. If necessary, it was briefly warmed at 37° C. to fully dissolve, passed through a sterile filter, and aliquoted and stored at -20° C. until use.
The Extraction Buffer used was a solution composed of 20% SDS, 2.5% Acetic Acid (80% 6 stock solution), 2.5% 1N Hcl, 50% Dimethylformamide/50% dissolved in distilled water, SDS was dissolved into buffer components with gentle heating and stirring and the resultant solution was filtered and stored until use.
The MTT solution was added in an amount equal to 10% of the culture volume to each well in a 96-well plate containing 100,000 Jurkat cells/well.
The wells were then incubated for 0.5 to 2 hours in standard culture conditions. A volume of extraction buffer equal to the culture volume was added. The 96-well plate was then sealed. The formazan crystals were allowed to extract at 37° C. for four hours. The plate was read on a spectrophotometer [Spectramax 250, Molecular Devices, Sunnyvale, Calif.] at an absorbance wavelength of 560 nm. (The background absorbance measured at 650 nm was subtracted from the value measured at 560 nm.)
The Jurkat cells (Jurkat clone E6-1) were grown using standard conditions supplied by ATCC (American Type Culture Collection--Rockville, Md.).
The compounds diluted in medium (RPMI 1640 plus 10% fetal bovine serum) stock solution of 100 μM, then this stock solution was further diluted 3-fold before testing in the instant assay.
2-Hydroxy-3-methoxy-E-nitrostyrene tested at 100 μM as death control cells, incubated under the above conditions at 37° C. overnight.
The Extraction Buffer (100 μl) was added to each well and the resultant suspension was incubated 4 hours at 37° C.
The results from this procedure are set forth above in Table 1 in the column marked "Cytotox (MTT/Jurkat)". […] Toxicity was rated "3" if dead cells and >50% reduction in MTT absorbance at 1 μM test compound.

T1 sequence (P80457 whole entry): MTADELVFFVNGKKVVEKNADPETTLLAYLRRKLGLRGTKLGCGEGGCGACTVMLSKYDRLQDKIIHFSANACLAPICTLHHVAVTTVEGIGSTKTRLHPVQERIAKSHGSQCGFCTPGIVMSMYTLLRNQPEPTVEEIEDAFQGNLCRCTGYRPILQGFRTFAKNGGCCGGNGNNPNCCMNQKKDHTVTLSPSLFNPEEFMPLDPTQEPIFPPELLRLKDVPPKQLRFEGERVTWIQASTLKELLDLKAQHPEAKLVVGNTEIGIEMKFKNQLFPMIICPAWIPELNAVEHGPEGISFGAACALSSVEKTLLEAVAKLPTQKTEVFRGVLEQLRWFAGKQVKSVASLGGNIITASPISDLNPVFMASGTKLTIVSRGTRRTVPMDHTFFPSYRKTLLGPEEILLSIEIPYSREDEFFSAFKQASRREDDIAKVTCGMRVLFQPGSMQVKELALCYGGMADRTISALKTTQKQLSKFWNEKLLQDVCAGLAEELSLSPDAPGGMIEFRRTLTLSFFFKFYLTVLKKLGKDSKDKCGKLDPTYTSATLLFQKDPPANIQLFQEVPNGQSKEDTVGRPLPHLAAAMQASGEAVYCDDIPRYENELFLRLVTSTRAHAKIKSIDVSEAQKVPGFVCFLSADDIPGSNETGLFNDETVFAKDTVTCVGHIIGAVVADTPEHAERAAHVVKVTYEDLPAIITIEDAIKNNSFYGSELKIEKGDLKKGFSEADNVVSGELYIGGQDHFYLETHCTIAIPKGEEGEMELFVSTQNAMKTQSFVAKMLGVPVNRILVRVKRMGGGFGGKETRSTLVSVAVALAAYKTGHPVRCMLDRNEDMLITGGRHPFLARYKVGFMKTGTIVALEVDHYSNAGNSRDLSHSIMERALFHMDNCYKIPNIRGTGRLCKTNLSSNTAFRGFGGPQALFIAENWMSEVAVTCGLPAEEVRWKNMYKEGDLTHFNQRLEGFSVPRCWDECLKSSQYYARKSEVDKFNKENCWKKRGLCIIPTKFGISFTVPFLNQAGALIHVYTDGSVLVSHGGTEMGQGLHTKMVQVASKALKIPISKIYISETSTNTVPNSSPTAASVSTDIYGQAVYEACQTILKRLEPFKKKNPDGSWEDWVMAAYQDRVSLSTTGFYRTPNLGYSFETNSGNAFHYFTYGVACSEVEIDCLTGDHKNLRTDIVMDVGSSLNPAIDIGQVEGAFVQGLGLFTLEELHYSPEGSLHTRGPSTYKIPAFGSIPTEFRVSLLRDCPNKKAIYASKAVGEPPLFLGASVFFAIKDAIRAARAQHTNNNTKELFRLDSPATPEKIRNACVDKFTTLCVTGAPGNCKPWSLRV

Structure (SMILES)	Xanthine Oxidase Inhibition IC50 (Integral) (Xanthine oxidase)	IC50 [1] [µM]	Cytotox (MTT/Jurkat) (Jurkat cells)	inhibition at 50 µM [1] [%]	Neutrophil Burst IC50 (Lucigenin) [1]	IC50 (Xanthine oxidase) [µM]
Oc1ccc(/C=N/N=C/c2ccc(O)cc2)cc1 [Example 6, Bis[4-Hydroxybenzaldehyde]trans,trans-Azine]	No Effect	13.5	0			
COc1cccc(/C=N/N=C/c2cccc(OC)c2O)c1O [A, Bis[3-methoxy-2-hydroxybenzaldehyde]trans,trans-azine]	No Effect		0	1.1	No Effect	
COc1ccc(/C=N/N=C/c2ccc(OC)c(OC)c2)cc1OC [Example 5, Bis[3,4-Dimethoxybenzaldehyde]trans,trans-Azine]	No Effect				No Effect	
COc1cc(C=Nc2ccc(Br)cc2)cc(OC)c1O [Example 20, N-(3,5-Dimethoxy-4-Hydroxybenzylidene)-p-Bromoaniline]		9.9				34
COc1cc(/C(C)=N/N=C(\C)c2cc(OC)c(O)c(OC)c2)cc(OC)c1O [Example 9, Bis[3,5-Dimethoxy-4-Hydroxyacetophenone]trans,trans-Azine]		8.7				20
COc1ccc(N=Cc2cc(OC)c(O)c(OC)c2)cc1 [Example 18, N-(3,5-Dimethoxy-4-Hydroxybenzylidene)-p-Methoxyaniline]		5	0			32
COc1ccc(/C=N/N=C/c2ccc(OC)c(O)c2)cc1O [Example 4, Bis[3-Hydroxy-4-Methoxybenzaldehyde]trans,trans-Azine]	No Effect				No Effect	
COc1cc(/C=N/N=C/c2cc(Br)c(O)c(OC)c2)cc(Br)c1O [Example 1, Bis[3-Bromo-4-Hydroxy-5-Methoxybenzaldehyde]trans,trans-Azine]		38	0			
COc1cc(/C=N/N=C/c2cc(OC)c(O)c(OC)c2)cc(OC)c1O [D, Bis[4-hydroxy-3,5-dimethoxybenzaldehyde]-trans,trans-azine]			1 (dead cells and >50% reduction in MTT absorbance were observed at 100 μM of the test compound)			70
COc1cc(/C=N/N=C/c2ccc(O)cc2)ccc1O [Example 10, N-[4-Hydroxy-3-Methoxybenzaldehyde]-N'-[4-Hydroxybenzaldehyde]trans,trans-Azine]	No Effect	8.5	0			
COc1cccc(/C=N/N=C/c2cccc(OC)c2OC)c1OC [Example 2, Bis[2,3-Dimethoxybenzaldehyde]trans,trans-Azine]	No Effect				No Effect	
COc1cc(/C(C)=N/N=C(\C)c2ccc(O)c(OC)c2)ccc1O [Example 7, Bis[4-Hydroxy-3-Methoxyacetophenone]trans,trans-Azine]	No Effect	33.1	1 (dead cells and >50% reduction in MTT absorbance were observed at 100 μM of the test compound)			
CCOc1cc(/C=N/N=C/c2ccc(O)c(OCC)c2)ccc1O [Example 8, Bis[3-Ethoxy-4-Hydroxybenzaldehyde]trans,trans-Azine]					No Effect	
COc1cc(C=Nc2nncs2)ccc1O [Example 22, 5-N'-(3-Methoxy-4-Hydroxybenzylidene)-5-Amino-1,3,4-Thiadiazole]		15.5				16.3
COc1cc(C=Nc2nncs2)cc(OC)c1O [Example 21, R-N'-(3,5-Dimethoxy-4-Hydroxybenzylidene)-5-Amino-1,3,4-Thiadiazole]		8				2.1
COc1ccc(N=Cc2cc(C(C)(C)C)c(O)c(C(C)(C)C)c2)cc1 [Example 16, N-(3,5-di(tert-Butyl)-4-Hydroxybenzylidene)-p-Methoxyaniline]	No Effect		0			
COc1cc(C=Nc2nccs2)ccc1O [B, 2-N'-(3-methoxy-4-hydroxybenzylidene)-2-amino-1,3-thiazole]				49.4		
COc1ccc(/C=N/N=C/c2ccc(OC)cc2O)c(O)c1 [Example 3, Bis[2-Hydroxy-4-Methoxybenzaldehyde]trans,trans-Azine]	No Effect				No Effect	
COc1cccc(/C=N/N=C/c2cccc(OC)c2)c1 [Example 11, Bis[3-Methoxybenzaldehyde]trans,trans-Azine]	No Effect					
COc1cc(C=Nc2ccc(F)cc2)cc(OC)c1O [Example 19, N-(3,5-Dimethoxy-4-Hydroxybenzylidene)-p-Fluoroaniline]		13.2				28
C(=N\N=C\c1ccncc1)/c1ccncc1 [Example 15, Bis[Pyridine-4-Carboxaldehyde]trans,trans-Azine]	No Effect				No Effect	
CC(C)(C)c1cc(/C=N/N=C/c2cc(C(C)(C)C)c(O)c(C(C)(C)C)c2)cc(C(C)(C)C)c1O [Example 14, Bis[3,5-(tert-Butyl)-4-Hydroxybenzaldehyde]trans,trans-Azine]	No Effect				No Effect	
COc1cc(C=Nc2ccccc2)cc(OC)c1O [Example 23, N-(3,5-Dimethoxy-4-Hydroxybenzylidene)Aniline]		5				14
